# Like-named read-outs stand apart in the source and are kept apart here.
# Columns and labels:
# Type in all cases: biochemical
# FGFR1 = FGFR1 (Homo sapiens (Human), UniProt P11362); test: FGFR Enzymatic Assay (FRET peptide phosphorylation), FGFR1; conditions: pre-incubated for 4 hours
# FGFR4 = FGFR4 (Homo sapiens (Human), UniProt P22455); test: FGFR Enzymatic Assay (FRET peptide phosphorylation), FGFR4
# [1] = target: wild-type un-phosphorylated FGFR3 protein (Homo sapiens (Human), UniProt P22607); test: FGFR Enzymatic Assay (FRET peptide phosphorylation), FGFR3; conditions: pre-incubated for 4 hours
# wild-type un-phosphorylated FGFR3 protein, sequence (P22607 23-806): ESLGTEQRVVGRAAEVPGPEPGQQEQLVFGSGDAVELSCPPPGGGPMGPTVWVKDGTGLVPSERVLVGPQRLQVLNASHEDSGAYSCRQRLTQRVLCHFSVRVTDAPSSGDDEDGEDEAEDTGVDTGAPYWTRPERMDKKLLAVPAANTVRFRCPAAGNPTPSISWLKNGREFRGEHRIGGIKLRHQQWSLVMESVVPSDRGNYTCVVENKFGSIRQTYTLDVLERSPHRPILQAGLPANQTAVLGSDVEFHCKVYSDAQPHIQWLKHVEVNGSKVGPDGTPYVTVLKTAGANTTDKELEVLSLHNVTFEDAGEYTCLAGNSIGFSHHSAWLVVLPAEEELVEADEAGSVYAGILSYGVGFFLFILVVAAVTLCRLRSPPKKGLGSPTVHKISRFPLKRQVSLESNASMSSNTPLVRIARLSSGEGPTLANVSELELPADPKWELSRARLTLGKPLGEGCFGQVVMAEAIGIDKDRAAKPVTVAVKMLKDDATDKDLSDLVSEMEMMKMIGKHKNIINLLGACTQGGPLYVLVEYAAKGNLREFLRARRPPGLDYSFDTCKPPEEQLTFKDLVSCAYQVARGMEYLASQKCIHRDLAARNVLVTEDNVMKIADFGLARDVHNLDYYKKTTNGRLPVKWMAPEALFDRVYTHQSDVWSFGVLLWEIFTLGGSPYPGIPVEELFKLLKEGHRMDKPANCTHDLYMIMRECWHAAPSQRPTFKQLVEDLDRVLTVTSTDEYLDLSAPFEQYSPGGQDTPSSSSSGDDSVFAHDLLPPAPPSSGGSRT
# FGFR2 = FGFR2 (Homo sapiens (Human), UniProt P21802); test: FGFR Enzymatic Assay (FRET peptide phosphorylation), FGFR2
# FGFR2, sequence (P21802 22-821): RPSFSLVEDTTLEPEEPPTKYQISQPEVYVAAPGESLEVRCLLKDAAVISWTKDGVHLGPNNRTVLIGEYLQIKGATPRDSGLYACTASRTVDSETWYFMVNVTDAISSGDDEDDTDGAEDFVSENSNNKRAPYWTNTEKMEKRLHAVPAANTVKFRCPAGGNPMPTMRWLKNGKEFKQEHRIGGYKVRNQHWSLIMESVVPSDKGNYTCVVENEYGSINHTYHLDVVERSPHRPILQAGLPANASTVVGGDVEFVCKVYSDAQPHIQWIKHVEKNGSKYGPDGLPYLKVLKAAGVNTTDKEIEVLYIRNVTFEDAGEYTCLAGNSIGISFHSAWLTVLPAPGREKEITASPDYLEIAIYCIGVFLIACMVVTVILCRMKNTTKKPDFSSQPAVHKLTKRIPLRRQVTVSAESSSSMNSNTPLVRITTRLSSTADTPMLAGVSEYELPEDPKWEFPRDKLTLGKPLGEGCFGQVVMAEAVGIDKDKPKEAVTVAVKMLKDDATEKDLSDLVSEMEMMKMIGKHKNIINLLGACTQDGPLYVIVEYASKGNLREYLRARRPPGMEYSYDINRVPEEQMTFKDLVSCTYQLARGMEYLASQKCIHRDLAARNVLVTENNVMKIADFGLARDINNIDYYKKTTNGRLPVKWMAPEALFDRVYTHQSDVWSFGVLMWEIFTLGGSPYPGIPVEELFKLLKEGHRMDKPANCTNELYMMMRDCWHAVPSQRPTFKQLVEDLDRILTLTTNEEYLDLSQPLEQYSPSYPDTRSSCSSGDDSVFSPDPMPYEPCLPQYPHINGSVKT
# FGFR4, sequence (P22455 22-802): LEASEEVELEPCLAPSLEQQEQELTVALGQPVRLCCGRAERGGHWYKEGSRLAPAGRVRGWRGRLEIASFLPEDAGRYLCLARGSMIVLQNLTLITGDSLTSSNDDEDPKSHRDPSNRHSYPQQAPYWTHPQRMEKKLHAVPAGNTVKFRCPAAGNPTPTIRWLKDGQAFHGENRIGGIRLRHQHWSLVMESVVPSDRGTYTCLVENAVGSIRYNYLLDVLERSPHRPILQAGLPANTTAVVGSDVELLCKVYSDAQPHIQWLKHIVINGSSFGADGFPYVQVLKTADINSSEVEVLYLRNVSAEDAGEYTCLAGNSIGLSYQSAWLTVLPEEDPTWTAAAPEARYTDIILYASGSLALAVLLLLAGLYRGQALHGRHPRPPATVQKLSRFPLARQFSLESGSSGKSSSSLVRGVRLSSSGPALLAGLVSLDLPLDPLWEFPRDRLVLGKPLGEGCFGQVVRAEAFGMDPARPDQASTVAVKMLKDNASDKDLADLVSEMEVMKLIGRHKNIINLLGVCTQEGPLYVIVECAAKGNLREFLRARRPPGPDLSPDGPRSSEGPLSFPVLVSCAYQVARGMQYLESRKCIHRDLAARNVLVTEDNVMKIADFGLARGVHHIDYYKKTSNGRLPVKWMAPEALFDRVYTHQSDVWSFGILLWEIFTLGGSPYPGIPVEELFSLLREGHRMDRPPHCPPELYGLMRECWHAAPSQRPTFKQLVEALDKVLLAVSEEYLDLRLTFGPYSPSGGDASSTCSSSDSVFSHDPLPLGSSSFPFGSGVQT
# FGFR1, sequence (P11362 22-822): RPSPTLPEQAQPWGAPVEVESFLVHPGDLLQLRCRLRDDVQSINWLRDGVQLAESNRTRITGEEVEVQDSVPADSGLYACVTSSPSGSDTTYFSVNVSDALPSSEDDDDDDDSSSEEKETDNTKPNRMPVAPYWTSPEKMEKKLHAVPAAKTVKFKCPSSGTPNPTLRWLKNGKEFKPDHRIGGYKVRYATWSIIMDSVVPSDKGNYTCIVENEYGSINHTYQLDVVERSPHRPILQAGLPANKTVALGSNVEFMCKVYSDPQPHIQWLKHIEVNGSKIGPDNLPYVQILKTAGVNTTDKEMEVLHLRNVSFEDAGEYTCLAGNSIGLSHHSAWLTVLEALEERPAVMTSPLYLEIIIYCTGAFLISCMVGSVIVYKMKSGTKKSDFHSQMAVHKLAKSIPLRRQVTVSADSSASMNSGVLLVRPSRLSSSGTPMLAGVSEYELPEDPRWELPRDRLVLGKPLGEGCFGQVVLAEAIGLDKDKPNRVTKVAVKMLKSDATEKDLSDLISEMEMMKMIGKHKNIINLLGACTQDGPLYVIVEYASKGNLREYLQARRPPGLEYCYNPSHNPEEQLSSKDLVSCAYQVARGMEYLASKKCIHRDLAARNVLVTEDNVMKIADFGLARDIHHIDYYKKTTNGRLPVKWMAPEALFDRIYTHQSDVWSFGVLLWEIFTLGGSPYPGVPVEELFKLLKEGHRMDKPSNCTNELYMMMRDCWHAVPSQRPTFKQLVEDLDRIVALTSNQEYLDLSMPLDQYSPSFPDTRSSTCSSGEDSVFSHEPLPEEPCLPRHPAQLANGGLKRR
Structure (SMILES),IC50 (FGFR1) [nM],IC50 (FGFR4; pre-incubated for 4 hours) [nM],IC50 [1] [nM],IC50 (FGFR2; pre-incubated for 4 hours) [nM],IC50 (FGFR4) [nM],IC50 (FGFR2) [nM]
"CCn1cc(-c2cn3ncc(-c4cc(C(=O)NC)cc(F)c4F)c3nc2N[C@H]2CCOC2)cn1 [Example 53, (S)-3-(6-(1-Ethy1-1H-pyrazol-4-y1)-5-((tetrahydrofuran-3-yl)amino)pyrazolo[1,5-a]pyrimidin-3-y1)-4,5-difluoro-N-methylbenzamide]",10 to 30,–,< 10,–,> 200,< 10
"CNC(=O)c1cc(C)c(F)c(-c2cnn3cc(-c4cnn(C5CCN(C)CC5)c4)c(N[C@H]4CCOC4)nc23)c1 [Example 34, (S)-4-Fluoro-N,3-dimethyl-5-(6-(1-(1-methylpiperidin-4-yl)-1H-pyrazol-4-yl)-5-((tetrahydrofuran-3-yl)amino)pyrazolo[1,5-a]pyrimidin-3-yl)benzamide]",10 to 30,30 to 200,< 10,< 10,–,–
"CNC(=O)c1cc(F)c(F)c(-c2cnn3cc(-c4cnc(C)o4)c(N[C@H]4CCOC4)nc23)c1 [Example 58, (S)-3,4-Difluoro-N-methyl-5-(6-(2-methyloxazol-5-y1)-5-((tetrahydrofuran-3-yl)amino)pyrazolo[1,5-a]pyrimidin-3-yl)benzamide]",< 10,–,< 10,–,30 to 200,< 10
"CNC(=O)c1cc(C)c(F)c(-c2cnn3cc(-c4cnn(C5CCOC5)c4)c(N[C@H]4CCOC4)nc23)c1 (stereo partly drawn) [Example 41, 4-Fluoro-N,3-dimethyl-5-(6-(1-(tetrahydrofuran-3-yl)-1H-pyrazol-4-y1)-5-(((S)-tetrahydrofuran-3-yl)amino)pyrazolo[1,5-a]pyrimidin-3-yl)benzamide]",30 to 200,–,< 10,–,30 to 200,< 10
"Cn1cc(-c2cn3ncc(-c4cccc5[nH]ncc45)c3nc2O[C@H]2CCOC2)cn1 [Example 33, (S)-3-(1H-Indazol-4-yl)-6-(1-methyl-1H-pyrazol-4-yl)-5-((tetrahydrofuran-3-yl)oxy)pyrazolo[1,5-a]pyrimidine]",10 to 30,30 to 200,< 10,< 10,–,–

# Now from value to compound, other results behind:
IC50 (FGFR1) [nM],IC50 (FGFR4; pre-incubated for 4 hours) [nM],IC50 [1] [nM],IC50 (FGFR2; pre-incubated for 4 hours) [nM],Structure (SMILES),IC50 (FGFR4) [nM],IC50 (FGFR2) [nM]
< 10,10 to 30,< 10,< 10,"CNC(=O)c1cncc(-c2cnn3cc(-c4ccn(C)n4)c(N[C@H]4CCOC4)nc23)c1 [Example 59, (S)—N-Methyl-5-(6-(1-methyl-1H-pyrazol-3-yl)-5-((tetrahydrofuran-3-yl)amino)pyrazolo[1,5-a]pyrimidin-3-yl)nicotinamide]",–,–
10 to 30,≥ 200,< 10,< 10,"CNC(=O)c1cc(C)c(F)c(-c2cnn3cc(-c4cnn(C5CN(C)C5)c4)c(N[C@H]4CCOC4)nc23)c1 [Example 35, (S)-4-Fluoro-N,3-dimethyl-5-(6-(1-(1-methylazetidin-3-yl)-1H-pyrazol-4-yl)-5-((tetrahydrofuran-3-yl)amino)pyrazolo[1,5-a]pyrimidin-3-yl)benzamide]",–,–
10 to 30,≥ 200,< 10,< 10,"Cn1cc(-c2cn3ncc(-c4cccc(-c5cc[nH]n5)c4)c3nc2O[C@H]2CCOC2)cn1 [Example 51, (S)-3-(3-(1H-Pyrazol-3-yl)phenyl)-6-(1-methyl-1H-pyrazol-4-yl)-5-((tetrahydrofuran-3-yl)oxy)pyrazolo[1,5-a]pyrimidine]",–,–
30 to 200,≥ 200,< 10,< 10,"CNC(=O)c1cncc(-c2cnn3cc(-c4cnn(C)n4)c(N[C@H]4CCOC4)nc23)c1 [Example 60, (S)—N-Methyl-5-(6-(2-methyl-2H-1,2,3-triazol-4-yl)-5-((tetrahydrofuran-3-yl)amino)pyrazolo[1,5-a]pyrimidin-3-yl)nicotinamide]",–,–
10 to 30,30 to 200,< 10,< 10,"CNC(=O)c1cc(C)c(F)c(-c2cnn3cc(-c4cnn([C@@H]5CCN(C)C[C@H]5F)c4)c(N[C@H]4CCOC4)nc23)c1 [Example 65, 4-Fluoro-3-(6-(1-((3R,4R)-3-fluoro-1-methylpiperidin-4-yl)-1H-pyrazol-4-yl)-5-(((S)-tetrahydrofuran-3-yl)amino)pyrazolo[1,5-a]pyrimidin-3-yl)-N,5-dimethylbenzamide]",–,–

# Reference: patent US11566028B2, “Bicyclic heterocycles as FGFR inhibitors” (Incyte Corporation, priority 2019, dated 2023)
